Marks after values point to notes of the source that are not given here.
Experiments:
[1] = system: fronto-occipital cortex of the cat; test: Quantitative EEG, fronto-occipital cat cortex, subcutaneous administration; assay type: in vivo, cats; details: in vivo
Source text: This unique combination of activity may render buspirone useful in the treatment of childhood hyperkinesis which has been reported to respond to both selected phenothiazine and stimulant drugs. • (b) Adult mongrel female cats weighing 2.5-4.0 kg were implanted with EEG recording electrodes. Recording sites were as follows: fronto-occipital cortex, basal amygdala and ventral hippocampus.
Animals were individually held in canvas feline restraining bags for EEG recording. The EEG of each brain area was recorded on a separate channel. The instrumentation filtered each channel of EEG and analog data into five distinct frequency bands: Δ=0.5-3.5 Hz, ϑ=3.5-7.0 Hz, α=7-13 Hz, β=13-25 Hz and γ=25-40 Hz. The EEG analyzer then integrated the filtered waveforms and sent pulses to an associated computer at a rate proportional to the electrical energy of each band. Data collecting procedures were essentially the same as reported in Example 1. However, groups of six animals each were used and all drugs were administered subcutaneously in saline solution as their respective salts, but all dosages were calculated as the free base. Recording was started 30 minutes after injection to insure adequate drug absorption for peak activity.
Drug-induced EEG changes were determined by comparing the post-treatment data to the pre-treatment control in the same animal. Statistical analysis was performed on change from control, in instrument counts, using multiple Student-t-paired-comparison test with P≦0.05 (Table 2). However, for clarity data are also presented as percent change from control (Figures 3, 4 and 5).
The data in Table 2 are drug-induced changes resulting from the minimum and higher doses of each compound required to elicit the EEG profile characteristic of that particular drug.

rabbit cortex = test: Quantitative EEG, rabbit cortex, intravenous administration; assay type: in vivo, rabbits; details: rabbit, in vivo
Procedure: At least 2 weeks were allowed for recovery before beginning experimentation.
Groups of four animals each were individually restrained and connected to an EEG amplifier and frequency analyzer. The EEG of each animal was recorded on a separate channel. The instrumentation filtered each channel of EEG analog data into five distinct frequency bands: Δ=0.5-3.5 Hz, ϑ=3.5-7.0 Hz, α=7-13 Hz, β=13-25 Hz and γ=25-40 Hz. The EEG analyzer then integrated the filtered waveforms and sent pulses to an associated computer at a rate proportional to the electrical energy of each band. Thus, one computer print-out provided a cortical EEG profile for the entire group of four rabbits.
Data from a one-hour recording period were collected in four 15-minute periods, which provided additional information concerning both onset and time of peak effect of drug activity. However, in this report only the mean activity of the four data collection periods was considered since onset of drug activity was immediate and duration of action was at least one hour for all drugs studied. Drug-induced EEG changes were determined by comparing the post-treatment print-out to the pretreatment control in the same animal and statistical analysis was performed on change from control, in counts, using multiple Student-t paired-comparison tests with p≦0.05 (Table 1). However, for clarity data are also presented as percent change from control (Figures 1 and 2).
All drugs were administered intravenously in saline solution as their respective salts and all dosage calculations were based on the free base. Recording was started immediately after injection and animals were not used more often than once per week. Initial doses were reduced geometrically until a no-effect dose was determined for each drug. However, only the "no-effect" data and the data generated from the next higher dose are presented in this report since the shape of the EEG profile is not dose-related, as opposed to the magnitude of the response which is dose-related.

With `C[C@H](N)Cc1ccccc1` [Dextroamphetamine 1/2H2SO4, dextroamphetamine] the “the minimum dose required to produce the EEG profile characteristic of that particular drug” value [1] was 0.125‡ mg/kg, s.c, the the no-effect dose [1] was 0.0625† mg/kg, s.c and the “relative potency by comparing minimal doses required to elicit EEG profiles” value ([1]; sc) was “approximately twice as potent as buspirone and methylphenidate”. For the same molecule, the “group percent change in electrical energy from pre-drug control, Δ band” value (from here on “group percent change … Δ band”) ([1]; sc, 0.0625 mg/kg) was -18 ± 6 (-8) percent, the “group percent change in electrical energy from pre-drug control, α band” value (“group percent change … α band” below) ([1]; sc, 0.0625 mg/kg) was -12 ± 8 (-8) percent and the “group percent change in electrical energy from pre-drug control, β band” value (“group percent change … β band” below) ([1]; sc, 0.0625 mg/kg) was “+1 ± 5 (+1) percent”. For the same molecule, the “group percent change in electrical energy from pre-drug control, γ band” value (“group percent change … γ band” below) ([1]; sc, 0.0625 mg/kg) was “+2 ± 3 (+2) percent”, the “group percent change in electrical energy from pre-drug control, θ band” value (“group percent change … θ band” below) ([1]; sc, 0.0625 mg/kg) was -15 ± 7 (-10) percent and the “mean change ± S.E. in electrical energy from pre-drug control, Δ band” value (“mean change ± S.E. in electrical energy … Δ band” below) ([1]; sc, 0.0625 mg/kg) was -18 ± 6 (-8) instrument counts. For the same molecule, the “mean change ± S.E. in electrical energy from pre-drug control, α band” value (“mean change ± S.E. in electrical energy … α band” below) ([1]; sc, 0.0625 mg/kg) was -12 ± 8 (-8) instrument counts, the “mean change ± S.E. in electrical energy from pre-drug control, β band” value (from here on “mean change ± S.E. in electrical energy … β band”) ([1]; sc, 0.0625 mg/kg) was “+1 ± 5 (+1) instrument counts” and the “mean change ± S.E. in electrical energy from pre-drug control, γ band” value (“mean change ± S.E. in electrical energy … γ band” for short) ([1]; sc, 0.0625 mg/kg) was “+2 ± 3 (+2) instrument counts”. The “mean change ± S.E. in electrical energy from pre-drug control, θ band” value (“mean change ± S.E. in electrical energy … θ band” for short) ([1]; sc, 0.0625 mg/kg) was -15 ± 7 (-10) instrument counts, the “group percent change … Δ band” value ([1]; sc, 0.125 mg/kg) was -85 ± 21 (-35) percent and the “group percent change … α band” value ([1]; sc, 0.125 mg/kg) was -29 ± 9 (-26) percent. The “group percent change … β band” value ([1]; sc, 0.125 mg/kg) was -3 ± 4 (-3) percent, the “group percent change … γ band” value ([1]; sc, 0.125 mg/kg) was “+8 ± 2 (+12) percent” and the “group percent change … θ band” value ([1]; sc, 0.125 mg/kg) was -44 ± 8 (-33) percent. The “mean change ± S.E. in electrical energy … Δ band” value ([1]; sc, 0.125 mg/kg) was -85 ± 21 (-35) instrument counts, the “mean change ± S.E. in electrical energy … α band” value ([1]; sc, 0.125 mg/kg) was -29 ± 9 (-26) instrument counts and the “mean change ± S.E. in electrical energy … β band” value ([1]; sc, 0.125 mg/kg) was -3 ± 4 (-3) instrument counts. For the same molecule, the “mean change ± S.E. in electrical energy … γ band” value ([1]; sc, 0.125 mg/kg) was “+8 ± 2 (+12) instrument counts”, the “mean change ± S.E. in electrical energy … θ band” value ([1]; sc, 0.125 mg/kg) was -44 ± 8 (-33) instrument counts and the “group percent change … Δ band” value ([1]; sc, 0.5 mg/kg) was -78 ± 32 (-33) percent. The “group percent change … α band” value ([1]; sc, 0.5 mg/kg) was -71 ± 11 (-51) percent, the “group percent change … β band” value ([1]; sc, 0.5 mg/kg) was -18 ± 9 (-15) percent and the “group percent change … γ band” value ([1]; sc, 0.5 mg/kg) was “+18 ± 4 (+25) percent”. For the same molecule, the “group percent change … θ band” value ([1]; sc, 0.5 mg/kg) was -76 ± 13 (-51) percent, the “mean change ± S.E. in electrical energy … Δ band” value ([1]; sc, 0.5 mg/kg) was -78 ± 32 (-33) instrument counts and the “mean change ± S.E. in electrical energy … α band” value ([1]; sc, 0.5 mg/kg) was -71 ± 11 (-51) instrument counts. For the same molecule, the “mean change ± S.E. in electrical energy … β band” value ([1]; sc, 0.5 mg/kg) was -18 ± 9 (-15) instrument counts, the “mean change ± S.E. in electrical energy … γ band” value ([1]; sc, 0.5 mg/kg) was “+18 ± 4 (+25) instrument counts” and the “mean change ± S.E. in electrical energy … θ band” value ([1]; sc, 0.5 mg/kg) was -76 ± 13 (-51) instrument counts. The “group percent change … Δ band” value ([1]; sc, 4 mg/kg) was “+64 ± 27 (+29) percent”, the “group percent change … α band” value ([1]; sc, 4 mg/kg) was -44 ± 13 (-35) percent and the “group percent change … β band” value ([1]; sc, 4 mg/kg) was -6 ± 9 (-5) percent. The “group percent change … γ band” value ([1]; sc, 4 mg/kg) was “+50 ± 8 (+63) percent”, the “group percent change … θ band” value ([1]; sc, 4 mg/kg) was -34 ± 13 (-24) percent and the “mean change ± S.E. in electrical energy … Δ band” value ([1]; sc, 4 mg/kg) was “+64 ± 27 (+29) instrument counts”. The “mean change ± S.E. in electrical energy … α band” value ([1]; sc, 4 mg/kg) was -44 ± 13 (-35) instrument counts, the “mean change ± S.E. in electrical energy … β band” value ([1]; sc, 4 mg/kg) was -6 ± 9 (-5) instrument counts and the “mean change ± S.E. in electrical energy … γ band” value ([1]; sc, 4 mg/kg) was “+50 ± 8 (+63) instrument counts”. The “mean change ± S.E. in electrical energy … θ band” value ([1]; sc, 4 mg/kg) was -34 ± 13 (-24) instrument counts, the “the minimum dose required to produce the EEG profile characteristic of that particular drug” value (rabbit cortex) was 0.25‡ mg/kg, i.v and the the no-effect dose (rabbit cortex) was 0.125† mg/kg, i.v. The “relative potency by comparing minimal doses required to elicit EEG profiles” value (rabbit cortex; iv) was “approximately twice as potent as buspirone”, the “group percent change … Δ band” value (rabbit cortex; iv, 0.125 mg/kg) was “+4 ± 17 (+2) percent” and the “group percent change … α band” value (rabbit cortex; iv, 0.125 mg/kg) was 0 ± 9 (0) percent. For the same molecule, the “group percent change … β band” value (rabbit cortex; iv, 0.125 mg/kg) was “+2 ± 6 (+1) percent”, the “group percent change … γ band” value (rabbit cortex; iv, 0.125 mg/kg) was “+1 ± 1 (+1) percent” and the “group percent change … θ band” value (rabbit cortex; iv, 0.125 mg/kg) was -9 ± 6 (-5) percent. For the same molecule, the “mean change ± S.E. in electrical energy … Δ band” value (rabbit cortex; iv, 0.125 mg/kg) was “+4 ± 17 (+2) instrument counts”, the “mean change ± S.E. in electrical energy … α band” value (rabbit cortex; iv, 0.125 mg/kg) was 0 ± 9 (0) instrument counts and the “mean change ± S.E. in electrical energy … β band” value (rabbit cortex; iv, 0.125 mg/kg) was “+2 ± 6 (+1) instrument counts”. For the same molecule, the “mean change ± S.E. in electrical energy … γ band” value (rabbit cortex; iv, 0.125 mg/kg) was “+1 ± 1 (+1) instrument counts”, the “mean change ± S.E. in electrical energy … θ band” value (rabbit cortex; iv, 0.125 mg/kg) was -9 ± 6 (-5) instrument counts and the “group percent change … α band” value (rabbit cortex; iv, 0.25 mg/kg) was “+27 ± 9 (-22) percent”. For the same molecule, the “group percent change … β band” value (rabbit cortex; iv, 0.25 mg/kg) was -21 ± 6 (-20) percent, the “group percent change … γ band” value (rabbit cortex; iv, 0.25 mg/kg) was -4 ± 1 (-5) percent and the “group percent change … θ band” value (rabbit cortex; iv, 0.25 mg/kg) was -35 ± 9 (-25) percent. For the same molecule, the “mean change ± S.E. in electrical energy … Δ band” value (rabbit cortex; iv, 0.25 mg/kg) was -64 ± 19 (-33) instrument counts, the “mean change ± S.E. in electrical energy … β band” value (rabbit cortex; iv, 0.25 mg/kg) was -21 ± 6 (-20) instrument counts and the “mean change ± S.E. in electrical energy … γ band” value (rabbit cortex; iv, 0.25 mg/kg) was -4 ± 1 (-5) instrument counts. The “mean change ± S.E. in electrical energy … θ band” value (rabbit cortex; iv, 0.25 mg/kg) was -35 ± 9 (-25) instrument counts.
